This note sets out measurements from US7001770B1, “Calpain inhibitors and their applications” (priority 1998, dated 2006).

Square brackets hold non-standard residues; d marks the D form. Peptide text beside a SMILES is read from it. Nle = CCCC[C@H](N)C(=O)O

One test relates to A549 cells. In words: Apoptosis by annexin V-FITC staining, flow cytometry. Format: cell-based. Particulars: 26 hours post treatment. As to the method:
(§1) The effect of an inhibitor of μ-calpains, CI-1 (N-acetyl-leu-leu-norleucinal), was investigated for its ability to enhance p53 mediated apoptosis in tumor cell lines having p53+ and p53− status listed in Table1. Each cell line was treated with 5–50 μM CI-1 for 17–26 hours. To detect a G0/G1 block, bromodeoxyuridine (BrdU) incorporation followed by flow cytometric analysis was done 17 hours post-treatment as described in Example 4 herein. […] The results of these experiments are presented in FIGS. 1 and 2 of the attached drawings. In FIG. 1, each point on the graph represents percentage annexin V positive after background percentage (DMF alone) was subtracted.
(§2) CI-1 was obtained from Boehringer-Mannheim Biochemicals (Indianapolis, Ind.). The CI-1 containing media was prepared as follows. CI-1 was diluted in dimethylformamide (DMF) to a concentration of 33.3 μM/μl. The CI-1 solution in DMF was added to achieve a final concentration in the media of 5 or 10 μM final concentration of CI-1. An equivalent volume of DMF alone was added to the control cells. Calpain inhibitor 2, N-acetyl-leu—leu-methioninal (Boehringer Mannheim) was added to cell lines at 5–50 μM final concentration with or without rAd-p53 for 26 hours.
(§3) At a time of 17 (or 26 hours) post infection, the percentage of cells undergoing apoptosis was determined by convential apoptotic markers. Apoptosis was monitored visually by observing blebbed nuclei characteristic of apoptosis, by propidium iodide staining (using propidium iodide commercially available from Molecular Probes, Inc.) followed by flow cytometric analysis to look for subgenomic populations of cells, and by labeling cells with annexin V-FITC (commercially available from Boehringer Mannheim) in substantial accordance with the instructions provided by the manufacturer, followed by flow cytometric analysis on a FACScan Flow Cytometer (commercially available from Becton Dickinson).
(In flow cytometry, cells or beads pass a laser one at a time.)

A further test concerns Hep3B cells. The test is described as above. Type of test: cell-based. The following applies: for Percent Annexin V Positive Staining: 26 hours post treatment. On the procedure:
as §1, §2, §3

The test system of a further test is NCI-H596 cells. The test is described as above. Format: cell-based. Particulars: CI-1 treatment; p53 mutated lung cell line. As to the method:
as §1, §2, §3

A further test deals with DLD1 cells. The test can be described thus: G0/G1 cell cycle arrest by BrdU labeling, flow cytometry. Particulars: 5 μM CI-1 for 17 hours, 2 hour pulse; 35% without calpain treatment. Format: cell-based. As to the method: (§4) In order to determine any increases in p53 function in response to calpain inhibitor 1, the quantity of cells undergoing G0/G1 cell cycle arrest in response to CI-1 administration, was assayed by bromodeoxyuridine labeling of cells. Each of the cell lines described in Example 2 above were exposed to a concentration of 0 or 5 μM CI-1 (in DMF) as described in Example 3 above. Cell lines treated with DMF alone or 5 μM final concentration of calpain inhibitor 1 for 17 hours were pulse labeled with a final concentration of 10 μM bromodeoxyuridine (Boehringer Mannheim) for two hours. Cells were harvested for bivariate BrdU/DNA flow cytometric analysis by fixation in 70% ethanol, followed digestion with 0.08% pepsin for 30 minutes at 37 degrees. Cells were centrifuged at 1500 RPM, and 2N HCL was added. Cells were incubated at 37 degrees for 20 minutes, followed by addition of 1M sodium borate. Cells were washed in IFA/tween 20 (0.01 M HEPES, 0.005% sodium azide, 0.5% tween 20, 5% FBS, […]), and anti-BrdU antibody, diluted 1:10 in IFA without tween 20, was added for 30 minutes. Cells were washed in IFA/tween 20, and incubated in IFA/tween 20/RNase for 15 minutes at 37 degrees.
(§5) Cells that had incorporated BrdU were stained using a FITC conjugated monoclonal antibody to BrdU (commercially available from Becton-Dickinson) and detected by FACS analysis on a FACScan FACS machine (commercially available from Becton Dickinson).

The next test deals with HLF cells. Described as above. Format: cell-based. The following applies: 5 μM CI-1 for 17 hours, 2 hour pulse; DMF control 42%. As to the method: as §4, §5
In a further test the test system is RKO cells. Described as above. Format: cell-based. Particulars: 5 μM CI-1 for 17 hours, 2 hour pulse; DMF control 47%. On the procedure: as §4, §5
For a further test, the system named is SK-Hep1 cells. The test is described as above. The following applies: 5 μM CI-1 for 17 hours, 2 hour pulse; DMF control 34%. Format: cell-based. As to the method: as §4, §5
The subject of test [1] is p53 protein levels in Hep3B cells (p53 null). The test can be described thus: Western blot of p53 protein levels. Type of test: cell-based. The following applies: rAd-p53 in the presence of 10 μM calpain inhibitor 1 versus rAd53 alone; 17 hours. On the procedure: To determine if increases in exogeneous p53 levels occurred in response to CI-1, the p53 null cell line Hep3B was infected with 1×10^9 particle/ml and assayed for p53 protein levels by western blots 17 hours post-infection. No p53 protein was detected in untreated Hep3B. p53 protein was detected in cells infected with rAd53 alone, and increased greater then 10 fold when infected with rAd-p53 in the presence of 10 μM calpain inhibitor 1. […] The enhancement of p53 stability by CI-1 may not, therefore, be the sole mechanism by which enhanced cell death has been achieved. […] Thus, a new mechanism of action is involved other than p53 stability in the increased induction of apoptosis by the combination of CI-1 and p53.
At 17 hours post treatment, cells were lysed in protein lysis buffer (50 mM tris, 250 mM NaCl, 50 mM NaF, 5 mM EDTA and 0.1% NP-40 with 1 mM PMSF). Cell lysates were subjected to electrophoresis. 10 μg of protein was added per lane on a 12% polyacrylamide gel and transfered onto nitrocellulose membranes. The membranes were subjected to western blot analysis using antibodies specific for p53 or p21 (Calbiochem, p53 antibody Ab-6, and p21 antibody Ab-7). […] Blots were developed using enhanced chemiluminescence detection system (Amersham) and quantitated using NIH imaging analysis.
In general terms: Immunoblotting shows a protein as a band on a membrane.

Test [2] has as its system beta-galactosidase transgene. The test can be described thus: In vivo transgene RNA in liver by RT-PCR. On the set-up: species or system C57BL/6 mice. The following applies: CI-1 60 mg/kg ip, three administrations; 9×10^9 particle/ml rAd beta-galactosidase tail vein; seen in one third of the mice. As to the method: […] C57BL/6 mice were treated with 60 mg/kg injected intraperitoneally on day minus one. Three control mice were injected with CI-1 solvent only (PBS/0.02% DMSO). On day zero, all mice were tail vein injected with 9×10^9 particle/ml with a recombinant adenovirus encoding the beta-galactosidase transgene. CI-1 or solvent was administed one additional time on day one for three total intraperitoneal administrations of CI-1. Mice were sacrificed three days and nine days later (four-and ten days post-infection respectively), and livers were harvested for quantitative PCR and RT-PCR to detect viral DNA and viral transcript (b-galactosidase) respectively. One third of the miceexpressed a high level of transgene RNA in response to calpain inhibitor 1 treatment, as compared with virus alone.

As to `CCCC[C@@H](C=O)NC(=O)[C@H](CC(C)C)NC(=O)[C@H](CC(C)C)NC(C)=O` [CI-1, N-acetyl-leu-leu-norleucinal] (Ac-Leu-Leu-[Nle]-aldehyde), the “Percent Annexin V Positive Staining” value in the test with A549 cells (CI-1 10 μM) worked out at 6%; in the test with A549 cells (CI-1 20 μM), 5%; in the test on A549 cells (CI-1 50 μM) it was 18%; with Hep3B cells (CI-1 20 μM) it was 36%; with Hep3B cells (CI-1 50 μM) it was 32%. In addition, in the test on Hep3B cells (highest concentration of inhibitor (50 μM), p53 null), the “increase in the percentage of apoptotic cells” value is reported as “no increase”. Besides, the “increase in the percent of cells annexin V positive in response to treatment” value with NCI-H596 cells is listed as “no increase”. In addition, the “cells incorporating BrdU” value with DLD1 cells is on record as “about 25%”. The “cells incorporating BrdU label” value turned out to be 35% in the test with HLF cells, 16% with RKO cells and 8% in the test with SK-Hep1 cells. Further, in test [1], the “increase in p53 protein” value is listed as > 10 fold. The “level of transgene RNA in liver compared with virus alone” value in test [2] is recorded as “Approximately a six fold higher level”.
